Laboratory results published in PubChem BioAssay AID208 (DTP/NCI, 2004).
“And” between values parts separate entries of the source, which are not always exact repeats. Equal entries are not always repeated. Inconclusive results are not listed.

System: HT29 intrarenal xenograft, nude mice, tumor weight change
Test: NCI In Vivo Anticancer Drug Screen. Data for tumor model HT29;CX-1 Human Adenocarcinoma (MER+) (intrarenal inoculation) in NU/NU BALB/C (nude) mice
Conditions: endpoint: mean tumor weight change, higher = larger tumour
Experimental: The antitumor activity of compounds was measured in mice bearing transplantable tumors. Survival or tumor size were measured and the results are expressed as the measurement made in the treated group (T) divided by the measurement made in the vehicle treated control group (C). The tumor model used in this assay is HT29;CX-1 Human Adenocarcinoma (MER+) (intrarenal inoculation) in NU/NU BALB/C (nude) mice

[1] = dose: 150.0 mg/kg/injection, schedule: Q04DX004 (sc), vehicle: saline
[2] = dose: 50.0 mg/kg/injection, schedule: Q01DX010 (sc), vehicle: saline
[3] = dose: 100.0 mg/kg/injection, schedule: Q01DX010 (sc), vehicle: saline

O=S(=O)(O)O.[NH-]C1CCCCC1[NH-].[Pt+2] (stereo not drawn)
T/C (dose: 0.63 mg/kg/injection, schedule: Q01DX010 (sc), vehicle: dextrose): 124 % of control | T/C (dose: 1.25 mg/kg/injection, schedule: Q01DX010 (sc), vehicle: dextrose): 83 % of control | T/C (dose: 2.5 mg/kg/injection, schedule: Q01DX010 (sc), vehicle: dextrose): 73 % of control

COc1ccc2c(NCCCCCCCCNc3c4ccccc4nc4cc(OC)ccc34)c3ccccc3nc2c1
T/C (dose: 31.25 mg/kg/injection, schedule: Q04DX004 (sc), vehicle: suspension in saline): 65 % of control | T/C (dose: 62.5 mg/kg/injection, schedule: Q04DX004 (sc), vehicle: suspension in saline): 72 % of control | T/C (dose: 125.0 mg/kg/injection, schedule: Q04DX004 (sc), vehicle: suspension in saline): 47 % of control | T/C (dose: 250.0 mg/kg/injection, schedule: Q04DX004 (sc), vehicle: suspension in saline): 73 % of control

Cc1ccc(S(=O)(=O)N/N=C/C(=O)O)cc1
T/C (dose: 100.0 mg/kg/injection, schedule: Q01DX010 (sc), vehicle: Klucel (hydroxypropylcellulose) (HPC)): 87 % of control | T/C (dose: 200.0 mg/kg/injection, schedule: Q01DX010 (sc), vehicle: Klucel (hydroxypropylcellulose) (HPC)): 50 % of control | T/C (dose: 400.0 mg/kg/injection, schedule: Q01DX010 (sc), vehicle: Klucel (hydroxypropylcellulose) (HPC)): 96 % of control | T/C (dose: 800.0 mg/kg/injection, schedule: Q01DX010 (sc), vehicle: Klucel (hydroxypropylcellulose) (HPC)): 106 % of control

CC1=C/C(O)CC(=O)Cc2nc(co2)C(=O)N2CCC=C2C(=O)OC(C(C)C)C(C)/C=C\C(=O)NC/C=C\1 (stereo not drawn)
T/C (dose: 150.0 mg/kg/injection, schedule: Q04DX004 (sc), vehicle: Klucel (hydroxypropylcellulose) (HPC)): 66 % of control | T/C (dose: 300.0 mg/kg/injection, schedule: Q04DX004 (sc), vehicle: Klucel (hydroxypropylcellulose) (HPC)): 92 % of control | T/C (dose: 600.0 mg/kg/injection, schedule: Q04DX004 (sc), vehicle: Klucel (hydroxypropylcellulose) (HPC)): 54 % of control | T/C (dose: 1200.0 mg/kg/injection, schedule: Q04DX004 (sc), vehicle: Klucel (hydroxypropylcellulose) (HPC)): 85 % of control

CCn1cnc2c(=S)nc[nH]c21
T/C [1]: 175 % of control

CC1(C)OCC2OC=CC(=O)C2O1 (stereo not drawn)
T/C (dose: 150.0 mg/kg/injection, schedule: Q04DX004 (sc), vehicle: saline with Tween-80): 111 % of control and 89 % of control | T/C (dose: 600.0 mg/kg/injection, schedule: Q04DX004 (sc), vehicle: saline with Tween-80): 82 % of control and 92 % of control

[N-]=[N+]=[N-]
T/C (dose: 1.5 mg/kg/injection, schedule: Q04DX004 (ip), vehicle: water): 79 % of control | T/C (dose: 3.0 mg/kg/injection, schedule: Q04DX004 (ip), vehicle: water): 90 % of control | T/C (dose: 6.0 mg/kg/injection, schedule: Q04DX004 (ip), vehicle: water): 59 % of control | T/C (dose: 12.0 mg/kg/injection, schedule: Q04DX004 (ip), vehicle: water): 62 % of control

C=CC(C)(C)n1cc(C2=C(O)C(=O)C(c3cn(C(C)(C)C=C)c4ccccc34)=C(O)C2=O)c2ccccc21
T/C (dose: 25.0 mg/kg/injection, schedule: Q04DX004 (sc), vehicle: Klucel (hydroxypropylcellulose) (HPC)): 113 % of control | T/C (dose: 100.0 mg/kg/injection, schedule: Q04DX004 (sc), vehicle: Klucel (hydroxypropylcellulose) (HPC)): 118 % of control | T/C (dose: 200.0 mg/kg/injection, schedule: Q04DX004 (sc), vehicle: Klucel (hydroxypropylcellulose) (HPC)): 121 % of control

Nc1ncnc2c1ccn2C1OC(CO)C(O)C1O (stereo not drawn)
T/C (dose: 2.0 mg/kg/injection, schedule: Q01DX010 (sc), vehicle: Klucel (hydroxypropylcellulose) (HPC)): 96 % of control | T/C (dose: 4.0 mg/kg/injection, schedule: Q01DX010 (sc), vehicle: Klucel (hydroxypropylcellulose) (HPC)): 81 % of control

CCCCC1CCCCCCc2[nH]c(/C=C3\N=C(c4ccc[nH]4)C=C3OC)cc21 (stereo not drawn)
T/C (dose: 2.0 mg/kg/injection, schedule: Q04DX004 (sc), vehicle: saline with Tween-80): 100 % of control | T/C (dose: 4.0 mg/kg/injection, schedule: Q04DX004 (sc), vehicle: saline with Tween-80): 192 % of control | T/C (dose: 8.0 mg/kg/injection, schedule: Q04DX004 (sc), vehicle: saline with Tween-80): 92 % of control

CCCCCCCCCCCCCCCCCCOCC(COP(=O)([O-])OCC[N+](C)(C)C)OC (stereo not drawn)
T/C [1]: 121 % of control

CN(C)/N=N/c1nc[nH]c1C(N)=O
T/C (dose: 100.0 mg/kg/injection, schedule: Q04DX004 (ip), vehicle: saline): 157 % of control | T/C (dose: 150.0 mg/kg/injection, schedule: Q04DX004 (ip), vehicle: saline): 75 % of control

Oc1c(Cl)cc(Cl)cc1C=NCCSc1ccc(Cl)cc1
T/C (dose: 600.0 mg/kg/injection, schedule: Q04DX004 (ip), vehicle: Klucel (hydroxypropylcellulose) (HPC)): 105 % of control and 88 % of control | T/C (dose: 1200.0 mg/kg/injection, schedule: Q04DX004 (ip), vehicle: Klucel (hydroxypropylcellulose) (HPC)): 80 % of control

Nc1nc2c(ncn2C2OC(CO)C(O)C2O)c(=O)[nH]1 (stereo not drawn)
T/C (dose: 225.0 mg/kg/injection, schedule: Q04DX004 (sc), vehicle: saline with Tween-80): 84 % of control | T/C (dose: 450.0 mg/kg/injection, schedule: Q04DX004 (sc), vehicle: saline with Tween-80): 96 % of control | T/C (dose: 900.0 mg/kg/injection, schedule: Q04DX004 (sc), vehicle: saline with Tween-80): 55 % of control | T/C (dose: 1800.0 mg/kg/injection, schedule: Q04DX004 (sc), vehicle: saline with Tween-80): 100 % of control

CC12CCC3C(CCC4CC(OC(=O)Cc5ccc(N(CCCl)CCCl)cc5)CCC43C)C1CCC(=O)N2 (stereo not drawn)
T/C (dose: 12.5 mg/kg/injection, schedule: Q04DX004 (sc), vehicle: saline with Tween-80): 99 % of control | T/C (dose: 25.0 mg/kg/injection, schedule: Q04DX004 (sc), vehicle: saline with Tween-80): 109 % of control | T/C (dose: 50.0 mg/kg/injection, schedule: Q04DX004 (sc), vehicle: saline with Tween-80): 77 % of control | T/C (dose: 100.0 mg/kg/injection, schedule: Q04DX004 (sc), vehicle: saline with Tween-80): 38 % of control

O=c1[nH]c(=O)n([C@H]2CCCO2)cc1F
T/C (dose: 46.4 mg/kg/injection, schedule: Q01DX010 (ip), vehicle: Klucel (hydroxypropylcellulose) (HPC)): 41 % of control | T/C (dose: 69.8 mg/kg/injection, schedule: Q01DX010 (ip), vehicle: Klucel (hydroxypropylcellulose) (HPC)): 68 % of control | T/C (dose: 104.6 mg/kg/injection, schedule: Q04DX004 (ip), vehicle: Klucel (hydroxypropylcellulose) (HPC)): 61 % of control | T/C (dose: 157.4 mg/kg/injection, schedule: Q04DX004 (ip), vehicle: Klucel (hydroxypropylcellulose) (HPC)): 40 % of control | T/C (dose: 157.8 mg/kg/injection, schedule: Q01DX010 (ip), vehicle: Klucel (hydroxypropylcellulose) (HPC)): 31 % of control | T/C (dose: 236.7 mg/kg/injection, schedule: Q04DX004 (ip), vehicle: Klucel (hydroxypropylcellulose) (HPC)): 53 % of control

CC[C@@]1(O)C(=O)OCc2c1cc1n(c2=O)Cc2cc3cc(O)ccc3nc2-1
T/C (dose: 8.0 mg/kg/injection, schedule: Q04DX004 (sc), vehicle: saline): 2 % of control | T/C (dose: 16.0 mg/kg/injection, schedule: Q04DX004 (sc), vehicle: saline): -74 % of control | T/C (dose: 32.0 mg/kg/injection, schedule: Q04DX004 (sc), vehicle: saline): -92 % of control

COC(=O)C[C@](O)(CCC(C)(C)O)C(=O)O[C@@H]1C(OC)=C[C@]23CCCN2CCc2cc4c(cc2[C@H]13)OCO4
T/C (dose: 0.31 mg/kg/injection, schedule: Q04DX004 (sc), vehicle: saline): 68 % of control | T/C (dose: 0.63 mg/kg/injection, schedule: Q04DX004 (sc), vehicle: saline): 84 % of control | T/C (dose: 1.25 mg/kg/injection, schedule: Q04DX004 (sc), vehicle: saline): 103 % of control | T/C (dose: 2.5 mg/kg/injection, schedule: Q04DX004 (sc), vehicle: saline): 86 % of control

[Na+]
T/C (dose: 150.0 mg/kg/injection, schedule: Q04DX004 (ip), vehicle: water): 55 % of control | T/C (dose: 300.0 mg/kg/injection, schedule: Q04DX004 (ip), vehicle: water): 70 % of control | T/C (dose: 600.0 mg/kg/injection, schedule: Q04DX004 (ip), vehicle: water): 16 % of control | T/C (dose: 1200.0 mg/kg/injection, schedule: Q04DX004 (ip), vehicle: water): 76 % of control

C=CS(=O)(=O)c1ccccc1
T/C [2]: 49 % of control | T/C [3]: 82 % of control

CN=C(NC#N)NCCSCc1nc[nH]c1C
T/C (dose: 225.0 mg/kg/injection, schedule: Q04DX004 (sc), vehicle: Klucel (hydroxypropylcellulose) (HPC)): 75 % of control | T/C (dose: 450.0 mg/kg/injection, schedule: Q04DX004 (sc), vehicle: Klucel (hydroxypropylcellulose) (HPC)): 99 % of control | T/C (dose: 900.0 mg/kg/injection, schedule: Q04DX004 (sc), vehicle: Klucel (hydroxypropylcellulose) (HPC)): 92 % of control

COc1cc(C)c2c(c1C=O)Oc1c(c(C)c(O)c3c1C(O)OC3=O)OC2=O (stereo not drawn)
T/C [2]: 42 % of control | T/C [3]: 81 % of control | T/C (dose: 400.0 mg/kg/injection, schedule: Q01DX010 (sc), vehicle: saline): 38 % of control
